# Assay results published in PMC5511861, “DS16570511 is a small-molecule inhibitor of the mitochondrial calcium uniporter” (Cell Death Discovery, 2017).
# Tests used:
# [1] = target: T1, MCU (Homo sapiens, UniProt Q8NE86); experiment: MCU-dependent mitochondrial Ca2+ influx in HEK293A cells overexpressing human MCU; type: cell-based; details: pretreatment
# T1 construct: expressed in transfected cells; host or cells: HEK293A cells, transient co-transfection with the mitochondria-targeted aequorin vector
# T1 sequence (Q8NE86 51-351): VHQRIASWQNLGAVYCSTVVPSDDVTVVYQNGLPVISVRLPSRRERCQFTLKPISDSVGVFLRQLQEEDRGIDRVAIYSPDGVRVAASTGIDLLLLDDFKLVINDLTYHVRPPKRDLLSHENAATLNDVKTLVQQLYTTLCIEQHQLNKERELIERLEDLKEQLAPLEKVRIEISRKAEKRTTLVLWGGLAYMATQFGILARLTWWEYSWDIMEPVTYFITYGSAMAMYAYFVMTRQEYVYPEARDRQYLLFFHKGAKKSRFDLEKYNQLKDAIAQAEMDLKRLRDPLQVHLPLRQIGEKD
# T1 sequence (Q9H4I9 48-107 partner limits assumed): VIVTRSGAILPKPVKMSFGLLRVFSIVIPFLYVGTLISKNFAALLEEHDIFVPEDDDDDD
# From the text: Next, to investigate the molecular component of the mitochondrial calcium uniporter, MCU-dependent and MICU-dependent Ca^2+ influx were examined. […] The MCU-dependent increment of Ca^2+ influx was blocked by the DS16570511 pretreatment (Figure 5b). We then investigated the effects of the inhibitor on the regulatory subunit MICU1. Previous studies have shown that MICU1 facilitates mitochondrial Ca^2+ uptake through the presence of a high Ca^2+ level.[11],[22]
# Figure 5 DS16570511 inhibits mitochondrial Ca^2+ influx by MCU or MICU1. (a) Effect of overexpression of MCU or MICU1 on mitochondrial Ca^2+ influx in HEK293A cells. (b) Effect of DS16570511 on MCU-dependent mitochondrial Ca^2+ uptake in HEK293A cells. (c) Effect of DS16570511 on MICU1-dependent mitochondrial Ca^2+ uptake in HEK293A cells. […]
# In order to evaluate mitochondrial Ca^2+ uptake activity by MCU or MICU1, HEK293A cells were transiently transfected with the mitochondria-targeted aequorin vector and pcDNA3.1 vector containing human Mcu (NCBI Reference Sequence: NM_138357.2) or Micu1 (NM_001195518.1). One day after the transfection, the luminescence levels were measured as described above. MCU- or MICU1-dependent activity was calculated by subtracting the luminescence level of cells transfected with empty vector from that of cells expressing MCU or MICU1, respectively.
# [2] = system: Ca2+ uptake of rat heart mitochondria; experiment: Ca2+ uptake assay using isolated rat heart mitochondria (atomic absorbance spectrometer); type: biochemical; details: 100 μM CaCl2; read-out: IC50, inhibition of Ca2+ uptake of rat heart mitochondria
# Procedure: We then asked whether DS16570511 inhibits Ca^2+ uptake in isolated mitochondria from animal heart. An atomic absorbance spectrometer-based detection method was employed to analyze intramitochondrial Ca^2+ levels. We prepared freshly isolated mitochondria from pig heart, and the mitochondria were incubated with 100 μM CaCl2.
# Figure 3 DS16570511 inhibits Ca^2+ uptake in isolated heart mitochondria. (a) Effect of RuR on Ca^2+ uptake of pig heart mitochondria. […] Data are mean with S.E.M. from three independent samples. (b) Inhibition rate of RuR or DS16570511 on Ca^2+ uptake of pig heart mitochondria. Inhibition 0 or 100% is defined as a value of Ca^2+-untreated mitochondria or Ca^2+-treated mitochondria, respectively. Data are mean with S.E.M. from three independent samples. (c) Inhibition rate of RuR or DS16570511 on Ca^2+ uptake of rat heart mitochondria. Data are mean with S.E.M./variation from three or two independent samples for DS16570511 or RuR, respectively.
# Mitochondria were isolated by using the mitochondria isolation kit and then dissolved in the swelling buffer. The protein concentration of the mitochondrial solution was 5 mg/ml. […] The solution was then diluted by water, and Ca^2+ concentration of the solution was measured by atomic absorbance spectrometer (Hitachi High-Technologies Corporation, Z-2710, Tokyo, Japan).
# [3] = system: mitochondrial Ca2+ levels in rat perfused heart; experiment: Mitochondrial Ca2+ overload in rat isolated perfused heart; details: 10 min pretreatment
# Procedure: We investigated the effect of DS16570511 on mitochondrial Ca^2+ levels in a rat isolated perfused heart. In the normal condition of the perfusion assay, the Ca^2+ concentration of the perfusion buffer is 2.5 mM.[23] To induce mitochondrial Ca^2+ overload, Ca^2+ concentration in the perfusion buffer was increased from 2.5 mM to 5 mM or 7.5 mM.
# Figure 6 DS16570511 inhibits mitochondrial Ca^2+ overload in isolated heart. Effect of DS16570511 on mitochondrial Ca^2+ levels in rat perfused heart. For induction of Ca^2+ overload in mitochondria ex vivo, Ca^2+ concentration was increased from 2.5 mM to 5 mM or 7.5 mM. The heart was treated with DS16570511 for 10 min before the high Ca^2+ treatment. Data are mean with S.E.M. from more than three independent samples.
# The hearts were rapidly excised from 9-week-old male Wistar rats and perfused at 37 °C with Krebs-Ringer perfusion buffer (127.2 mM NaCl, 4.7 mM KCl, 2.5 mM CaCl2, 1.2 mM KH2PO4, 1.2 mM MgSO4, 25 mM NaHCO3 and 5.5 mM glucose (pH 7.4)) equilibrated with 95% O2/5% CO2. A balloon was inserted through the left atrium into the left ventricle. Heart rate and contractility were continuously recorded with a data acquisition system (PowerLab, ADInstruments, Bella Vista, NSW, Australia).
compound,measurement,setting,value
Cc1onc(-c2c(Cl)cccc2Cl)c1CNc1cccc(C(=O)c2cn(CCCC(=O)O)c3ccccc23)c1 [DS16570511],effect on MCU-dependent increment of mitochondrial Ca2+ influx,[1],blocked
same,IC50,[2],25 µM
same,"effect on mitochondrial Ca2+ level, normal buffer","[3]; 2.5 mM Ca2+ buffer, 30 μM",no significant effect
same,effect on mitochondrial Ca2+ increase induced by 5.0 mM Ca2+ buffer,[3]; 5.0 mM Ca2+ buffer,blocked
same,effect on mitochondrial Ca2+ overload induced by 7.5 mM Ca2+ buffer,[3]; 7.5 mM Ca2+ buffer,dose-dependently inhibited
